Data as given in EP2678315B1, “(Pyridin-4-yl)benzylamides as allosteric modulators of alpha 7 nAChR” (Janssen Pharmaceutica, N.V., priority 2011, dated 2012).
pEC50: −log10 of the molar value. Where two headings read alike, the source gives them in different places.

Assays:
[1] = target: T1, human alpha 7-wt nAChR (Homo sapiens, UniProt P36544); assay: Patch-clamp current recording (whole-cell voltage-clamp, GH4C1 cells); assay type: cell-based; set-up: key: Type 0 compounds minimally change the effect size of the current elicited by 1 mM choline.; Type 1 compounds enhance the effect size of the current elicited by 1 mM choline but minimally alter the kinetics of the receptor.; Type 2 compounds enhance the effect size of the current elicited by 1 mM choline while reducing the rate and/or the extent of desensitization.; Type 3 compounds enhance the effect size of the current elicited by 1 mM choline. When tested at higher concentrations up to 10 µM they completely inhibit desensitization; Type 4 compounds allow for an initial desensitization of the receptor followed by a re-opening of the receptor during agonist application; details: current elicited by 1 mM choline
T1 construct: expressed in transfected cells
T1 sequence (P36544 23-502): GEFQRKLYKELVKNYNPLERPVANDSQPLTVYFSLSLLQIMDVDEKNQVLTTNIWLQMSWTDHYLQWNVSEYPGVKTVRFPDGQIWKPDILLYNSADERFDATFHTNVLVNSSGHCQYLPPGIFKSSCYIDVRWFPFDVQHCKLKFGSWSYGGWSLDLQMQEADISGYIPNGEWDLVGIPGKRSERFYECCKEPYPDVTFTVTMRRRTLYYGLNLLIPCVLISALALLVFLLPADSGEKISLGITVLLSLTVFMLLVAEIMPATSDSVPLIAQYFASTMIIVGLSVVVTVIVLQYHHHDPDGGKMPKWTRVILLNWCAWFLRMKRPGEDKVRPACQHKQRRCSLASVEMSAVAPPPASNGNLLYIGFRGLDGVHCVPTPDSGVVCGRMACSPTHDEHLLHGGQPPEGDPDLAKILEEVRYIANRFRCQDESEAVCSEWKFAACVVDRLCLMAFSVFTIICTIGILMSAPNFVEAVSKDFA
Protocol: The compounds of the present invention are classified as type 1-4, based on qualitative kinetic properties, as determined by whole-cell voltage-clamp recordings. This classification is based on the effect of an alpha 7 PAM compound, as described hereinbefore, on the signal elicited by an agonist application. In particular, said agonist is choline at a concentration of 1mM. In a preferred experimental setting, said alpha 7 PAM compound and choline are simultaneously applied to the cell, as described hereinafter. Desensitization is defined as the closure of the receptor upon activation during the application of the agonist in whole-cell voltage-clamp electrophysiology measurements seen as the reduction of the […] current after initial activation by the agonist.
The definition of the PAM types 1-4 is described hereinafter: Type 0 compounds minimally change the effect size of the current elicited by 1 mM choline. Type 1 compounds enhance the effect size of the current elicited by 1 mM choline but minimally alter the kinetics of the receptor. In particular, the rate and the extent of desensitization and of deactivation of the receptor elicited by the agonist is not affected. The compound-modulated response to 1 mM choline, therefore, is close to a linear scaling of the 1 mM choline response in absence of the alpha 7 PAM compound: Type 2 compounds enhance the effect size of the current elicited by 1 mM choline while reducing the rate and/or the extent of desensitization. Deactivation of the receptor is generally unaffected. Type 3 compounds enhance the effect size of the current elicited by 1 mM choline. […] Deactivation of the receptor may be slowed down. Type 4 compounds allow for an initial desensitization of the receptor followed by a re-opening of the receptor during agonist application. At low-potency concentrations of the alpha 7 PAM compound, the agonist-induced activation, which is followed by desensitization, can still be separated from the compound-induced re-opening as an initial inward current-maximum. At higher potency concentrations of the alpha 7 PAM compound, the re-opening occurs faster than the closure due to desensitization so that the initial current-maximum disappears.
A compound was considered to have interesting PAM-like activity when the potentiation of the peak current was at least 200% compared to the control choline response (= 100%). Such compounds are classified as belonging to a particular PAM type in the Experimental Part. Compounds not meeting the condition are not classified as belonging to a particular PAM-type.
The compounds also have a potentiating effect on the response to choline when measured by whole-cell patch clamp electrophysiology in GH4C1 cells stably over-expressing the human wild-type alpha 7 receptor.
Example D.2 : Patch-clamp current recording
Patch-clamp recording from mammalian cells has provided a powerful means of assessing the function of membrane-bound proteins thought to be subunits of ligand-gated ion channels. Activation of such proteins by endogenous or exogenous ligands cause opening of a pore associated with the receptor through which ions flow down their electrochemical gradient. In the case of the human alpha 7-wt nAChR-expressing GH4C1 recombinant cell line the preferential permeability to calcium of this receptor means that calcium flows into the cell upon activation by ACh, choline and other nicotinic ligands giving rise to a calcium current. Since this receptor rapidly desensitizes in the presence of agonist it is important that an application system is used which is capable of very rapid switching of solutions (< 100 ms) to prevent partial or full desensitisation of receptor responses coincident with the time of agonist application. Consequently, a second convenient technique to assess the enhancement of nicotinic efficacy is a patch-clamp recording from human alpha 7-wt nAChR-expressing GH4C1 cells coupled with a rapid-application system. […]

[2] = target: T1, human alpha 7-wt nAChR; assay: Ca2+ flux imaging (FDSS) (protocol B); assay type: cell-based; details: for EC50: read-out: pEC50 (converted); for Emax: read-out: % Efficacy
Outline: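 Fluo-4AM-loaded (2 µM) cells expressing human α7-wt nAChR in HEPES-HBSS with 5 mM CaCl2. Compounds (0.01–30 µM) were added, possibly 10 min before, with choline 100 µM, and peak fluorescence was monitored by FDSS. Potentiation was relative to the choline response, set as 100%; EC50 came from sigmoidal curves.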

Emax ([2]; Ca2+ assay as described in D.1) [%] | SMILES | PAM type [1] | EC50 ([2]; Ca2+ assay as described in D.1) [nM] | Emax [2] [%] | pEC50 [2]
– | Cc1cc(-c2cc(F)c(N3C[C@@H](C)O[C@@H](C)C3)cc2CNC(=O)CC2CC2)cc(C)n1 [Compound 125] | 2 | 263 | 451 | –
– | Cc1cc(-c2c(F)cc(N3C[C@@H](C)O[C@@H](C)C3)c(F)c2CNC(=O)c2cc(C)on2)cc(C)n1 [Compound 123] | 0 | 631 | – | –
– | Cc1cc(-c2ccc(N3C[C@@H](C)O[C@@H](C)C3)cc2CNC(=O)c2conc2C)cc(C)n1 [Compound 4] | 2 | 45.7 | – | –
– | Cc1cc(-c2c(F)cc(N3CCO[C@@H](C(F)(F)F)C3)cc2CNC(=O)C(C)C)cc(C)n1 [Compound 99] | 3 | 9.77 | 292 | –
– | Cc1cc(-c2c(F)cc(N3C[C@@H](C)O[C@@H](C)C3)cc2CNC(=O)C2CC2)ccn1 [Compound 88] | 2 | 209 | 868 | –
– | Cc1cc(-c2c(F)cc(N3CCO[C@H](C(F)(F)F)C3)cc2CNC(=O)c2cc(C)on2)cc(C)n1 [Compound 111] | 1 | 331 | 550 | –
817 | Cc1cc(-c2ccc(N3C[C@@H](C)O[C@@H](C)C3)cc2CNC(=O)C(C)C)cc(C)n1 [Compound 2, N-[[5-[(2R,6S)-2,6-dimethyl-4-morpholinyl]-2-(2,6-dimethyl-4-pyridinyl)phenyl]methyl]-2-methyl-propanamide] | 2 | 37.2 | – | –
– | Cc1cc(-c2ccc(N3C[C@@H](C)O[C@@H](C)C3)cc2CNC(=O)c2cc(C)on2)cc(C)n1 [Compound 3] | 1 | – | – | 6.34
– | Cc1cc(-c2c(F)cc(N3CCOC(C)C3)cc2CNC(=O)CC(C)C)cc(C)n1 (stereo not shown) [Compound 116] | 3 | 20.9 | 374 | –
– | Cc1cc(-c2cc(F)c(N3C[C@@H](C)O[C@@H](C)C3)cc2CNC(=O)C(C)C)cc(C)n1 [Compound 128] | 2 | 295 | 329 | –
– | Cc1cc(-c2ccc(N3C[C@@H](C)O[C@@H](C)C3)c(CNC(=O)c3conc3C)c2)cc(C)n1 [Compound 136] | 3 | 129 | – | –
– | Cc1cc(-c2c(F)cc(N3CCO[C@@H](C(F)(F)F)C3)cc2CNC(=O)C2CC2)cc(C)n1 [Compound 102] | 3 | 33.1 | 962 | –
– | Cc1cc(-c2ccc(N3C[C@@H](C)O[C@@H](C)C3)c(CNC(=O)CC3CC3)c2)cc(C)n1 [Compound 132] | 4 | 60.3 | – | –
– | Cc1cc(-c2c(Cl)cc(N3C[C@@H](C)O[C@@H](C)C3)cc2CNC(=O)C(C)C)cc(C)n1 [Compound 121] | 2 | 38 | 435 | –
– | Cc1cc(-c2cc(F)c(N3C[C@@H](C)O[C@@H](C)C3)cc2CNC(=O)c2cc(C)on2)cc(C)n1 [Compound 127] | 1 | 550 | 554 | –
– | Cc1cc(-c2c(F)cc(N3CCOC(C)C3)cc2CNC(=O)CC2CCC2)cc(C)n1 (stereo not shown) [Compound 118] | 3 | 23.4 | 485 | –
– | Cc1cc(-c2c(F)cc(N3CCO[C@H](C(F)(F)F)C3)cc2CNC(=O)c2conc2C)cc(C)n1 [Compound 106] | 2 | 36.3 | 159 | –
– | Cc1cc(-c2c(F)cc(N3CCOC(C)C3)cc2CNC(=O)CC2CC2)cc(C)n1 (stereo not shown) [Compound 114] | 3 | 158 | 415 | –
– | Cc1cc(-c2c(F)cc(N3CCO[C@H](C(F)(F)F)C3)cc2CNC(=O)C2CC2)cc(C)n1 [Compound 109] | 3 | 81.3 | 258 | –
– | Cc1cc(-c2cc(F)c(N3C[C@@H](C)O[C@@H](C)C3)cc2CNC(=O)C2CC2)cc(C)n1 [Compound 126] | 2 | 575 | 352 | –
